According to patent US20250114486A1, “MARKED FATTY ACID DERIVATIVE, PRECURSOR COMPOUND THEREOF, AND USE THEREOF IN CONTRAST AGENT” (BEIJING NORMAL UNIVERSITY, priority 2022, published 2025):

Assay: In vivo biodistribution of radioactive ^99mTc complexes in female SD rats
Set-up: species or system female Sprague-Dawley (SD) rats
Settings: for Biodistribution: Large Intestine / Biodistribution: Small Intestine / Biodistribution: Stomach: unit % ID
Procedure: Female SD rats (180-220 g, n=3) were fasted for 12 h before the experiment, and the purified radioactive 99mTc complexes 78-81 were prepared into physiological saline (containing 10% ethanol) solutions of about 250-350 μCi/mL. 200 μL of the above solution was injected into the tail vein of female SD rats, and the rats were killed by cervical dislocation at five time points, 15, 30, 60, 120 and 240 min after the tail vein injection. The blood, brain, heart, liver, spleen, lung, kidney, muscle, bone, large intestine, small intestine, stomach and tail were collected, weighed and counted, and the count distribution of each tissue and organ was calculated (unit: % ID/g, the unit of large intestine, small intestine and stomach is % ID), and the data are the mean±standard deviation of three mice in each phase. At the same time, 200 μL of the above solution was diluted to 20 mL, which was used as the % ID without deducting the tail count.

Biodistribution: Blood (15 min post-injection): 0.018 ± 0.003 ID %/g | Biodistribution: Bone (15 min post-injection): 0.11 ± 0.05 ID %/g | Biodistribution: Brain (15 min post-injection): 0.008 ± 0.004 ID %/g | Biodistribution: Heart (15 min post-injection): 0.94 ± 0.16 ID %/g | Biodistribution: Kidney (15 min post-injection): 2.43 ± 0.10 ID %/g | Biodistribution: Liver (15 min post-injection): 0.49 ± 0.03 ID %/g | Biodistribution: Lungs (15 min post-injection): 0.14 ± 0.04 ID %/g | Biodistribution: Muscle (15 min post-injection): 0.14 ± 0.04 ID %/g | Biodistribution: Spleen (15 min post-injection): 0.23 ± 0.06 ID %/g | Heart-to-Blood ratio (15 min post-injection): 53.37 ± 6.93 | Heart-to-Liver ratio (15 min post-injection): 1.91 ± 0.40 | Heart-to-Lungs ratio (15 min post-injection): 7.04 ± 1.69 | absolute myocardial uptake value (15 min post-injection): 0.94±0.16 % ID/g | Biodistribution: Large Intestine (15 min post-injection): 5.34 ± 1.37 % ID | Biodistribution: Small Intestine (15 min post-injection): 8.49 ± 0.85 % ID | Biodistribution: Stomach (15 min post-injection): 0.27 ± 0.09 % ID | Biodistribution: Blood (30 min post-injection): 0.026 ± 0.003 ID %/g | Biodistribution: Bone (30 min post-injection): 0.10 ± 0.01 ID %/g | Biodistribution: Brain (30 min post-injection): 0.010 ± 0.003 ID %/g | Biodistribution: Heart (30 min post-injection): 1.42 ± 0.32 ID %/g | Biodistribution: Kidney (30 min post-injection): 4.66 ± 0.51 ID %/g | Biodistribution: Liver (30 min post-injection): 1.01 ± 0.29 ID %/g | Biodistribution: Lungs (30 min post-injection): 0.32 ± 0.04 ID %/g | Biodistribution: Muscle (30 min post-injection): 0.22 ± 0.07 ID %/g | Biodistribution: Spleen (30 min post-injection): 0.26 ± 0.06 ID %/g | Heart-to-Blood ratio (30 min post-injection): 54.80±11.86 | Heart-to-Liver ratio (30 min post-injection): 1.48 ± 0.45 | Heart-to-Lungs ratio (30 min post-injection): 4.40 ± 0.64 | absolute myocardial uptake value (30 min post-injection): 1.42±0.32 % ID/g | Biodistribution: Large Intestine (30 min post-injection): 6.69 ± 0.68 % ID | Biodistribution: Small Intestine (30 min post-injection): 10.71 ± 1.89 % ID | Biodistribution: Stomach (30 min post-injection): 0.53 ± 0.07 % ID | Biodistribution: Blood (60 min post-injection): 0.013 ± 0.003 ID %/g | Biodistribution: Bone (60 min post-injection): 0.064 ± 0.004 ID %/g | Biodistribution: Brain (60 min post-injection): 0.011 ± 0.005 ID %/g | Biodistribution: Heart (60 min post-injection): 2.06 ± 0.06 ID %/g | Biodistribution: Kidney (60 min post-injection): 2.39 ± 0.58 ID %/g | Biodistribution: Liver (60 min post-injection): 0.33 ± 0.09 ID %/g | Biodistribution: Lungs (60 min post-injection): 0.22 ± 0.03 ID %/g | Biodistribution: Muscle (60 min post-injection): 0.48 ± 0.06 ID %/g | Biodistribution: Spleen (60 min post-injection): 0.16 ± 0.06 ID %/g | Heart-to-Blood ratio (60 min post-injection): 164.01±43.51 | Heart-to-Liver ratio (60 min post-injection): 6.43±1.85 | Heart-to-Lungs ratio (60 min post-injection): 9.48±1.39 | absolute myocardial uptake value (60 min post-injection): 2.06 0.06 % ID/g | Biodistribution: Large Intestine (60 min post-injection): 12.36 ± 2.55 % ID | Biodistribution: Small Intestine (60 min post-injection): 6.75 ± 1.89 % ID | Biodistribution: Stomach (60 min post-injection): 0.56 ± 0.27 % ID | Biodistribution: Blood (120 min post-injection): 0.009 ± 0.001 ID %/g | Biodistribution: Bone (120 min post-injection): 0.07 ± 0.02 ID %/g | Biodistribution: Brain (120 min post-injection): 0.010 ± 0.005 ID %/g | Biodistribution: Heart (120 min post-injection): 1.73 ± 0.09 ID %/g | Biodistribution: Kidney (120 min post-injection): 1.30 ± 0.41 ID %/g | Biodistribution: Liver (120 min post-injection): 0.18 ± 0.01 ID %/g | Biodistribution: Lungs (120 min post-injection): 0.16 ± 0.01 ID %/g | Biodistribution: Muscle (120 min post-injection): 0.34 ± 0.03 ID %/g | Biodistribution: Spleen (120 min post-injection): 0.15 ± 0.01 ID %/g | Heart-to-Blood ratio (120 min post-injection): 197.36±32.29 | Heart-to-Liver ratio (120 min post-injection): 9.68±0.76 | Heart-to-Lungs ratio (120 min post-injection): 11.40±3.06 | absolute myocardial uptake value (120 min post-injection): 1.73±0.09 % ID/g
Structure (SMILES): COC(C)(C)C[N+]#[C][99Tc-5]([C]#[N+]CC(C)(C)OC)([C]#[N+]CC(C)(C)OC)([C]#[N+]CC(C)(C)OC)([C]#[N+]CC(C)(C)OC)[C]#[N+]CC(C)(C)OCCCCCSCCCCC(=O)O [^99mTc complex 80]
